Measured values taken from EP2758401B1 (Bayer Intellectual Property GmbH, priority 2011, dated 2013).
Structures can show the parent of a compound that is named as a salt.

Legend:
MKNK1 [1] = target: T1, MKNK1 (Homo sapiens, UniProt Q9BUB5, T385D); assay: MKNK1 kinase high ATP assay (TR-FRET); format: biochemical; settings: ATP final conc. 2 mM; 15 min pre-incubation; reaction time 30 min at 22°C
T1 construct: GST (N); purchased Carna Biosciences 02-145; host or cells: insect cells (baculovirus expression system)
T1 sequence (Q9BUB5 1-424 isoform Q9BUB5-2 T344D): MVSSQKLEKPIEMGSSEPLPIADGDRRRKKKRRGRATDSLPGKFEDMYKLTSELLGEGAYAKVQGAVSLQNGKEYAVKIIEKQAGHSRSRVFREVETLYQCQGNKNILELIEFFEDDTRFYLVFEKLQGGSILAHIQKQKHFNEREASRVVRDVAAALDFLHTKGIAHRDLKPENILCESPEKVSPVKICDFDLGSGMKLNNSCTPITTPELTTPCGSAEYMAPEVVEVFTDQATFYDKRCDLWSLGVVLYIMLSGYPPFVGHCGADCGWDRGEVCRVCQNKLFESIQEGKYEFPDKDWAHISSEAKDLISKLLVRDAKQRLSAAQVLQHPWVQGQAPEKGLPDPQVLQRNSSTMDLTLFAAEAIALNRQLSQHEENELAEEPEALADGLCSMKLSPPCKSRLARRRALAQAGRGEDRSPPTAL
Method: MKNK1-inhibitory activity at high ATP of compounds of the present invention after their preincubation with MKNK1 was quantified employing the TR-FRET-based MKNK1 high ATP assay as described in the following paragraphs.
As substrate for the kinase reaction the biotinylated peptide biotin-Ahx-[…] (C-terminus in amide form) was used, which can be purchased e.g. from the company Biosyntan (Berlin-Buch, Germany).
For the assay 50 nL of a 100fold concentrated solution of the test compound in DMSO was pipetted into a black low volume 384well microtiter plate (Greiner Bio-One, Frickenhausen, Germany), 2 µL of a solution of MKNK1 in aqueous assay buffer [50 mM HEPES pH 7.5, 5 mM magnesium chloride, 1.0 mM dithiothreitol, 0.005% (v/v) Nonidet-P40 (Sigma)] was added and the mixture was incubated for 15 min at 22°C to allow pre-binding of the test compounds to the enzyme before the start of the kinase reaction. Then the kinase reaction was started by the addition of 3 µL of a solution of adenosine-tri-phosphate (ATP, 3.3 mM => final conc. in the 5 µL assay volume is 2 mM) and substrate (0.1 µM => final conc. in the 5 µL assay volume is 0.06 µM) in assay buffer and the resulting mixture was incubated for a reaction time of 30 min at 22°C. The concentration of MKNK1 was adjusted depending of the activity of the enzyme lot and was chosen appropriate to have the assay in the linear range, typical concentrations were in the range of 0.003 µg/mL. The reaction was stopped by the addition of 5 µL of a solution of TR-FRET detection reagents (5 nM streptavidine-XL665 [Cisbio Bioassays, Codolet, France] and 1 nM anti-ribosomal protein S6 (pSer236)-antibody from Invitrogen [# 44921G] and 1 nM LANCE EU-W1024 labeled ProteinG [Perkin-Elmer, product no. AD0071]) in an aqueous EDTA-solution (100 mM EDTA, 0.1 % (w/v) bovine serum albumin in 50 mM HEPES pH 7.5).
(§1) The resulting mixture was incubated for 1 h at 22°C to allow the formation of complex between the phosphorylated biotinylated peptide and the detection reagents. Subsequently the amount of phosphorylated substrate was evaluated by measurement of the resonance energy transfer from the Eu-chelate to the streptavidine-XL. Therefore, the fluorescence emissions at 620 nm and 665 nm after excitation at 350 nm were measured in a TR-FRET reader, e.g. a Rubystar (BMG Labtechnologies, Offenburg, Germany) or a Viewlux (Perkin-Elmer). The ratio of the emissions at 665 nm and at […] was taken as the measure for the amount of phosphorylated substrate. The data were normalised (enzyme reaction without inhibitor = 0 % inhibition, all other assay components but no enzyme = 100 % inhibition).

MKNK1 [2] = target: T1, MKNK1; assay: MKNK1 kinase assay (TR-FRET); format: biochemical; settings: ATP final conc. 10 µM; 15 min pre-incubation; reaction time 45 min at 22°C
Method: MKNK1-inhibitory activity of compounds of the present invention was quantified employing the MKNK1 TR-FRET assay as described in the following paragraphs.
As substrate for the kinase reaction the biotinylated peptide biotin-Ahx-[…] (C-terminus in amide form) was used which can be purchased e.g. form the company Biosyntan (Berlin-Buch, Germany).
For the assay 50 nL of a 100fold concentrated solution of the test compound in DMSO was pipetted into a black low volume 384well microtiter plate (Greiner Bio-One, Frickenhausen, Germany), 2 µL of a solution of MKNK1 in aqueous assay buffer [50 mM HEPES pH 7.5, 5 mM magnesium chloride, 1.0 mM dithiothreitol, 0.005% (v/v) Nonidet-P40 (Sigma)] was added and the mixture was incubated for 15 min at 22°C to allow pre-binding of the test compounds to the enzyme before the start of the kinase reaction. Then the kinase reaction was started by the addition of 3 µL of a solution of adenosine-tri-phosphate (ATP, 16.7 µM => final conc. in the 5 µL assay volume is 10 µM) and substrate (0.1 µM => final conc. in the 5 µL assay volume is 0.06 µM) in assay buffer and the resulting mixture was incubated for a reaction time of 45 min at 22°C.
as §1, with “inhibition). […] Table 1: MKNK1 IC50s” for “inhibition).”

SMILES: NCCCOc1ccc2ncc(-c3cc4ccccc4o3)n2n1 [Example 11, 3-{[3-(1-Benzofuran-2-yl)imidazo[1,2-b]pyridazin-6-yl]oxy}propan-1-amine]
- IC50 (MKNK1 [1]): 24 nM
- IC50 (MKNK1 [2]): 8 nM

SMILES: NCCOc1ccc2ncc(-c3cc4ccccc4o3)n2n1 [Example 12, 2-{[3-(1-Benzofuran-2-yl)imidazo[1,2-b]pyridazin-6-yl]oxy}ethanamine]
- IC50 (MKNK1 [1]): 27 nM
- IC50 (MKNK1 [2]): 10 nM

SMILES: CC(C)(N)CCOc1ccc2ncc(-c3cc4ccccc4o3)n2n1 [Example 14, 4-{[3-(1-Benzofuran-2-yl)imidazo[1,2-b]pyridazin-6-yl]oxy}-2-methylbutan-2-amine]
- IC50 (MKNK1 [1]): 39 nM
- IC50 (MKNK1 [2]): 20 nM

SMILES: C[C@H](CN)Oc1ccc2ncc(-c3cc4cc(Cl)ccc4o3)n2n1 [Example 15, (2R)-2-{[3-(5-Chloro-1-benzofuran-2-yl)imidazo[1,2-b]pyridazin-6-yl]oxy}-propan-1-amine]
- IC50 (MKNK1 [1]): 197 nM
- IC50 (MKNK1 [2]): 36 nM

SMILES: NC[C@H](Oc1ccc2ncc(-c3cc4ccccc4o3)n2n1)c1ccccc1 [Example 16, (2R)-2-{[3-(1-Benzofuran-2-yl)imidazo[1,2-b]pyridazin-6-yl]oxy}-2-phenylethan-amine]
- IC50 (MKNK1 [1]): 49 nM
- IC50 (MKNK1 [2]): 26 nM

SMILES: N[C@H](COc1ccc2ncc(-c3cc4ccccc4o3)n2n1)c1ccccc1 [Example 17, (1S)-2-{[3-(1-Benzofuran-2-yl)imidazo[1,2-b]pyridazin-6-yl]oxy}-1-phenylethan-amine]
- IC50 (MKNK1 [1]): 10 nM
- IC50 (MKNK1 [2]): 6 nM

SMILES: N[C@@H](COc1ccc2ncc(-c3cc4ccccc4o3)n2n1)c1ccccc1 [Example 18, (1R)-2-{[3-(1-Benzofuran-2-yl)imidazo[1,2-b]pyridazin-6-yl]oxy}-1-phenyl-ethanamine]
- IC50 (MKNK1 [1]): 33 nM
- IC50 (MKNK1 [2]): 22 nM

SMILES: N[C@H](COc1ccc2ncc(-c3cc4cc(Cl)ccc4o3)n2n1)c1ccccc1 [Example 19, (1S)-2-{[3-(5-Chloro-1-benzofuran-2-yl)imidazo[1,2-b]pyridazin-6-yl]oxy}-1-phenylethanamine]
- IC50 (MKNK1 [1]): 111 nM
- IC50 (MKNK1 [2]): 25 nM

SMILES: NC[C@H]1C[C@H](Oc2ccc3ncc(-c4cc5ccccc5o4)n3n2)C1 [Example 20, 1-(trans-3-{[3-(1-Benzofuran-2-yl)imidazo[1,2-b]pyridazin-6-yl]oxy}cyclobutyl)-methanamine]
- IC50 (MKNK1 [1]): 6 nM
- IC50 (MKNK1 [2]): 4 nM

SMILES: N[C@H]1C[C@H](COc2ccc3ncc(-c4cc5ccccc5o4)n3n2)C1 [Example 22, trans-3-({[3-(1-Benzofuran-2-yl)imidazo[1,2-b]pyridazin-6-yl]oxy}methyl)cyclobutanamine]
- IC50 (MKNK1 [1]): 17 nM
- IC50 (MKNK1 [2]): 6 nM

SMILES: N[C@H]1CCC[C@@H]1Oc1ccc2ncc(-c3cc4ccccc4o3)n2n1 [Example 24, (1S,2S)-2-{[3-(1-Benzofuran-2-yl)imidazo[1,2-b]pyridazin-6-yl]oxy}cyclopentan-amine]
- IC50 (MKNK1 [1]): 19 nM
- IC50 (MKNK1 [2]): 10 nM

SMILES: N[C@H]1CCC[C@H]1Oc1ccc2ncc(-c3cc4ccccc4o3)n2n1 [Example 25, (1S,2R)-2-{[3-(1-Benzofuran-2-yl)imidazo[1,2-b]pyridazin-6-yl]oxy}cyclopentan-amine salt with formic acid]
- IC50 (MKNK1 [1]): 22 nM
- IC50 (MKNK1 [2]): 7 nM

SMILES: NCC(Cc1ccccc1)Oc1ccc2ncc(-c3cc4ccccc4o3)n2n1 (centres unmarked) [Example 26, 2-{[3-(1-Benzofuran-2-yl)imidazo[1,2-b]pyridazin-6-yl]oxy}-3-phenylpropan-1-amine salt with formic acid]
- IC50 (MKNK1 [1]): 25 nM
- IC50 (MKNK1 [2]): 15 nM

SMILES: NCC(Oc1ccc2ncc(-c3cc4ccccc4o3)n2n1)C1CC1 (centres unmarked) [Example 30, 2-{[3-(1-Benzofuran-2-yl)imidazo[1,2-b]pyridazin-6-yl]oxy}-2-cyclopropylethan-amine]
- IC50 (MKNK1 [1]): 75 nM
- IC50 (MKNK1 [2]): 41 nM

SMILES: NCC(CN)Oc1ccc2ncc(-c3cc4ccccc4o3)n2n1 [Example 34, 2-{[3-(1-Benzofuran-2-yl)imidazo[1,2-b]pyridazin-6-yl]oxy}propane-1,3-diamine]
- IC50 (MKNK1 [1]): 92 nM
- IC50 (MKNK1 [2]): 39 nM

SMILES: NCC(Oc1ccc2ncc(-c3cc4ccccc4o3)n2n1)C1CCOC1 (centres unmarked) [Example 35, 2-{[3-(1-Benzofuran-2-yl)imidazo[1,2-b]pyridazin-6-yl]oxy}-2-(tetrahydrofuran-3-yl)ethanamine]
- IC50 (MKNK1 [1]): 52 nM
- IC50 (MKNK1 [2]): 32 nM

SMILES: N[C@H]1C[C@H](Oc2ccc3ncc(-c4cc5c(F)cccc5o4)n3n2)C1 [Example 36, trans-3-{[3-(4-Fluoro-1-benzofuran-2-yl)imidazo[1,2-b]pyridazin-6-yl]oxy}-cyclobutanamine]
- IC50 (MKNK1 [1]): 2 nM
- IC50 (MKNK1 [2]): 1 nM

SMILES: N[C@H]1C[C@H](Oc2ccc3ncc(-c4cc5cc(Cl)ccc5o4)n3n2)C1 [Example 37, trans-3-{[3-(5-Chloro-1-benzofuran-2-yl)imidazo[1,2-b]pyridazin-6-yl]oxy}-cyclobutanamine]
- IC50 (MKNK1 [1]): 5 nM
- IC50 (MKNK1 [2]): 4 nM

SMILES: COc1ccc2oc(-c3cnc4ccc(O[C@H]5C[C@H](N)C5)nn34)cc2c1 [Example 38, trans-3-{[3-(5-Methoxy-1-benzofuran-2-yl)imidazo[1,2-b]pyridazin-6-yl]oxy}-cyclobutanamine]
- IC50 (MKNK1 [1]): 6 nM
- IC50 (MKNK1 [2]): 3 nM

SMILES: N[C@H]1C[C@H](Oc2ccc3ncc(-c4cc5cc(F)ccc5o4)n3n2)C1 [Example 39, trans-3-{[3-(5-Fluoro-1-benzofuran-2-yl)imidazo[1,2-b]pyridazin-6-yl]oxy}-cyclobutanamine]
- IC50 (MKNK1 [1]): 6 nM
- IC50 (MKNK1 [2]): 3 nM

SMILES: CC(CN)COc1ccc2ncc(-c3cc4ccccc4o3)n2n1 (centres unmarked) [Example 40, 3-{[3-(1-Benzofuran-2-yl)imidazo[1,2-b]pyridazin-6-yl]oxy}-2-methylpropan-1-amine]
- IC50 (MKNK1 [1]): 18 nM
- IC50 (MKNK1 [2]): 9 nM

SMILES: COc1cccc2oc(-c3cnc4ccc(OCC(N)C5CC5)nn34)cc12 (centres unmarked) [Example 41, 1-Cyclopropyl-2-{[3-(4-methoxy-1-benzofuran-2-yl)imidazo[1,2-b]pyridazin-6-yl]oxy}ethanamine]
- IC50 (MKNK1 [1]): 27 nM
- IC50 (MKNK1 [2]): 12 nM

SMILES: C[C@@H](N)COc1ccc2ncc(-c3cc4ccccc4o3)n2n1 [Example 42, (2R)-1-{[3-(1-Benzofuran-2-yl)imidazo[1,2-b]pyridazin-6-yl]oxy}propan-2-amine]
- IC50 (MKNK1 [1]): 43 nM
- IC50 (MKNK1 [2]): 15 nM

SMILES: C[C@@H](N)COc1ccc2ncc(-c3cc4cc(Cl)ccc4o3)n2n1 [Example 43, (2R)-1-{[3-(5-Chloro-1-benzofuran-2-yl)imidazo[1,2-b]pyridazin-6-yl]oxy}-propan-2-amine]
- IC50 (MKNK1 [1]): 62 nM
- IC50 (MKNK1 [2]): 33 nM

SMILES: NCC1(COc2ccc3ncc(-c4cc5ccccc5o4)n3n2)COC1 [Example 44, 1-[3-({[3-(1-Benzofuran-2-yl)imidazo[1,2-b]pyridazin-6-yl]oxy}methyl)oxetan-3-yl]methanamine]
- IC50 (MKNK1 [1]): 63 nM
- IC50 (MKNK1 [2]): 52 nM
